Test results from PubChem BioAssay (NCI).
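These data come from cells grown in 96-well plates and exposed to compound for 48 hours at five concentrations. The concentration for full growth arrest is given as TGI.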

How the values were obtained:
Assay in all cases: NCI-60 cell line screen, 48 h
[1] = test system: MCF7 breast
[2] = test system: RPMI-8226 leukemia
[3] = test system: OVCAR-4 ovarian
[4] = test system: KM12 colon
[5] = test system: NCI/ADR-RES ovarian
[6] = test system: NCI-H460 lung
[7] = test system: RXF 393 renal
[8] = test system: CAKI-1 renal
[9] = test system: SK-OV-3 ovarian
[10] = test system: SK-MEL-5 melanoma
[11] = test system: MDA-MB-231 breast
[12] = test system: 786-0 renal
[13] = test system: UACC-257 melanoma
[14] = test system: HCT-116 colon
[15] = test system: DU-145 prostate
[16] = test system: K-562 leukemia
[17] = test system: SK-MEL-28 melanoma
[18] = test system: HOP-62 NSCLC
[19] = test system: IGROV1 ovarian
[20] = test system: UACC-62 melanoma
[21] = test system: EKVX NSCLC
[22] = test system: SNB-75 CNS
[23] = test system: A549 NSCLC
[24] = test system: LOX IMVI melanoma
[25] = test system: HT29 colon
[26] = test system: TK-10 renal
[27] = test system: NCI-H522 lung
[28] = test system: ACHN renal
[29] = test system: U251 CNS
[30] = test system: MALME-3M melanoma
[31] = test system: CCRF-CEM leukemia
[32] = test system: HS 578T breast
[33] = test system: UO-31 renal
[34] = test system: OVCAR-5 ovarian
[35] = test system: MOLT-4 leukemia
[36] = test system: NCI-H226 lung
[37] = test system: COLO 205 colon
[38] = test system: SNB-19 CNS
[39] = test system: HCT-15 colon
[40] = test system: OVCAR-3 ovarian
[41] = test system: T-47D breast
[42] = test system: SF-539 CNS
[43] = test system: M14 melanoma
[44] = test system: MDA-N
[45] = test system: PC-3 prostate
[46] = test system: HOP-92 NSCLC
[47] = test system: SF-268 CNS
[48] = test system: SR leukemia
[49] = test system: SW-620 colon
[50] = test system: A498 renal
[51] = test system: MDA-MB-435
[52] = test system: HL-60(TB) leukemia
[53] = test system: SK-MEL-2 melanoma
[54] = test system: OVCAR-8 ovarian
[55] = test system: BT-549 breast
[56] = test system: SN12C renal
[57] = test system: NCI-H23 lung
[58] = test system: SF-295 CNS

`C#CC1(O)C(COP(=O)(O)OC(COCCCCCCCCCCCCCCCCCC)COP(=O)(O)OCC2OC(n3cc(C)c(=O)[nH]c3=O)CC2N=[N+]=[N-])OC(n2ccc(N)nc2=O)C1O` (centres undefined) showed a TGI [1] of 8.67 µM, a TGI [2] of 1.05 µM and a TGI [3] of 30.9 µM. It also gave a TGI [4] of 20.5 µM, a TGI [5] of 16.6 µM and a TGI [6] of 17.6 µM. For the same compound, the TGI [7] was 30.6 µM, the TGI [8] was > 29 µM and the TGI [9] was 29.7 µM. For the same compound, the TGI [10] was > 100 µM, the TGI [11] was 32.2 µM and the TGI [12] was > 100 µM. For the same compound, the TGI [13] was > 77.3 µM, the TGI [14] was > 100 µM and the TGI [15] was > 100 µM. For the same compound, the TGI [16] was > 71.4 µM, the TGI [17] was 22.4 µM and the TGI [18] was > 74.2 µM. For the same compound, the TGI [19] was 5.05 µM, the TGI [20] was 18.8 µM and the TGI [21] was > 67.2 µM. For the same compound, the TGI [22] was 22.3 µM, the TGI [23] was 20.2 µM and the TGI [24] was 13 µM. The TGI [25] was > 50.9 µM, the TGI [26] was 10.2 µM and the TGI [27] was 1.33 µM. For the same compound, the TGI [28] was > 72.5 µM, the TGI [29] was 22 µM and the TGI [30] was 36.8 µM. It also gave a TGI [31] of 18.9 µM, a TGI [32] of 62.9 µM and a TGI [33] of 2.69 µM. The TGI [34] was > 92.7 µM, the TGI [35] was 59.5 µM and the TGI [36] was > 91.2 µM. The TGI [37] was 5.23 µM, the TGI [38] was 17.3 µM and the TGI [39] was > 47.8 µM. For the same compound, the TGI [40] was 28.7 µM, the TGI [41] was > 77 µM and the TGI [42] was 14.1 µM. The TGI [43] was 26.1 µM, the TGI [44] was 20.5 µM and the TGI [45] was > 81.6 µM. The TGI [46] was 31.9 µM, the TGI [47] was 21.7 µM and the TGI [48] was > 86.3 µM. The TGI [49] was 33.4 µM, the TGI [50] was 17.1 µM and the TGI [51] was 8.38 µM. The TGI [52] was 16 µM, the TGI [53] was 2.44 µM and the TGI [54] was > 42.2 µM. For the same compound, the TGI [55] was 31 µM, the TGI [56] was > 100 µM and the TGI [57] was 23.1 µM. It also gave a TGI [58] of 10.7 µM.

With `NC(=O)C1CCCNC1` (centres undefined) the TGI [1] was > 100 µM, the TGI [2] was > 100 µM and the TGI [3] was > 100 µM. The TGI [4] was > 100 µM, the TGI [5] was > 100 µM and the TGI [6] was > 100 µM. The TGI [7] was > 100 µM, the TGI [8] was > 100 µM and the TGI [9] was > 100 µM. For the same compound, the TGI [10] was > 100 µM, the TGI [11] was > 100 µM and the TGI [12] was > 100 µM. For the same compound, the TGI [14] was > 100 µM, the TGI [15] was > 100 µM and the TGI [17] was > 100 µM. The TGI [18] was > 100 µM, the TGI [19] was > 100 µM and the TGI [20] was > 100 µM. For the same compound, the TGI [21] was > 100 µM, the TGI [22] was > 100 µM and the TGI [23] was > 100 µM. For the same compound, the TGI [24] was > 100 µM, the TGI [25] was > 100 µM and the TGI [26] was > 100 µM. For the same compound, the TGI [27] was > 100 µM, the TGI [28] was > 100 µM and the TGI [29] was > 100 µM. For the same compound, the TGI [30] was > 100 µM, the TGI [31] was > 100 µM and the TGI [32] was > 100 µM. The TGI [33] was > 100 µM, the TGI [34] was > 100 µM and the TGI [35] was > 100 µM. The TGI [36] was > 100 µM, the TGI [37] was > 100 µM and the TGI [38] was > 100 µM. For the same compound, the TGI [39] was > 100 µM, the TGI [40] was > 100 µM and the TGI [41] was > 100 µM. The TGI [42] was > 100 µM, the TGI [43] was > 100 µM and the TGI [44] was > 100 µM. The TGI [45] was > 100 µM, the TGI [46] was > 100 µM and the TGI [47] was > 100 µM. The TGI [48] was > 100 µM, the TGI [49] was > 100 µM and the TGI [50] was > 100 µM. The TGI [51] was > 100 µM, the TGI [52] was > 100 µM and the TGI [53] was > 100 µM. For the same compound, the TGI [54] was > 100 µM, the TGI [55] was > 100 µM and the TGI [56] was > 100 µM. For the same compound, the TGI [57] was > 100 µM and the TGI [58] was > 100 µM.
